# Data: ChEMBL document CHEMBL1201862, “PubChem BioAssay data set” (2004)
# Activity calls are given as the source filed them.
# What was measured:
# Aminopeptidase N = biological target: T1, Aminopeptidase N (Plasmodium falciparum FcB1/Columbia, UniProt O96935); experiment: malaria alanyl aminopeptidase activity blockers – biochemical, fluorogenic H-Leu-NHMec substrate, 1536-well (AID 1445); parameters: species or system Plasmodium falciparum 3D7, 3D7
# T1 sequence (O96935 whole entry): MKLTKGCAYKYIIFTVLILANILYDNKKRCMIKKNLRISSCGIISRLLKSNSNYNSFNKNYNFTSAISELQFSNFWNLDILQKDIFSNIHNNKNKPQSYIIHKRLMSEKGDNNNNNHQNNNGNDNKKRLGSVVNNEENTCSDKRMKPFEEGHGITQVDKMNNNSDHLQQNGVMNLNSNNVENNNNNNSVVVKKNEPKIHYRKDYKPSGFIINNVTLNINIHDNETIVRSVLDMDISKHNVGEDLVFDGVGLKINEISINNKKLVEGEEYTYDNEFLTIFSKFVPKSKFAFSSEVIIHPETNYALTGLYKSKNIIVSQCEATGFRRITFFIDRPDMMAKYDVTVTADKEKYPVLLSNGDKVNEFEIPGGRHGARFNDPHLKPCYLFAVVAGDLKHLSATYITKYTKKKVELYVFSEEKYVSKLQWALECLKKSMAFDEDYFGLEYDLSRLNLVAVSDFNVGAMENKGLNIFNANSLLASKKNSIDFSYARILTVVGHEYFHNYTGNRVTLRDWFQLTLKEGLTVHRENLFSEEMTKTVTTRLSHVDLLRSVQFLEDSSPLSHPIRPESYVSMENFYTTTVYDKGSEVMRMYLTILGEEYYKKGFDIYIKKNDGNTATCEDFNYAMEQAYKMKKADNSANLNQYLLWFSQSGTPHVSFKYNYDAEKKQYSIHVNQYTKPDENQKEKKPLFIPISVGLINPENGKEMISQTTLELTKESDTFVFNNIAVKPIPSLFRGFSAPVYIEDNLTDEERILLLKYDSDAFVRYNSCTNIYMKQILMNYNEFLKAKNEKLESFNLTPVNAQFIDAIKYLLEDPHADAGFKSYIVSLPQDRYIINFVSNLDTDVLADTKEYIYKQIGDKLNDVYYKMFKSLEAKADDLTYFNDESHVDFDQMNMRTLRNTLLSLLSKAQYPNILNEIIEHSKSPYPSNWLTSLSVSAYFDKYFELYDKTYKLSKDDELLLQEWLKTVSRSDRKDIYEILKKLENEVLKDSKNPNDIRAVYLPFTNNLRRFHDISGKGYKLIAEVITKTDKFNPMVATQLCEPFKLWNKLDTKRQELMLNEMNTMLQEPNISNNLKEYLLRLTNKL
# [1] = microbe, parasite or virus in culture; format: functional; settings: Mycobacterium tuberculosis
# [2] = biological target: Voltage-dependent T-type calcium channel subunit alpha-1H (Homo sapiens, UniProt O95180); format: functional;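 further: channel activity triggered by adding a high calcium stimulation buffer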
# [3] = biological target: Peroxisome proliferator-activated receptor gamma/Nuclear receptor coactivator 1 (Homo sapiens, UniProt P37231); experiment: (§1) TR-FRET dose response biochemical High Throughput Screening assay for agonists of the steroid receptor coactivator 1 (SRC-1) recruitment by the peroxisome proliferator-activated receptor gamma (PPAR gamma): non-selective agonists. [Related pubchem assays (depositor defined):AID1300, AID1808, AID504735, AID631]; format: protein assay
# [4] = biological target: Peroxisome proliferator-activated receptor gamma/Nuclear receptor coactivator 3 (Homo sapiens, UniProt P37231); experiment: as §1, with “3 (SRC-3)” for “1 (SRC-1)”, “assays: 1301 (Confirmation screen.), 1048 (Primary screen.)]” for “assays (depositor defined):AID1300, AID1808, AID504735, AID631]”; format: functional
# [5] = biological target: Peroxisome proliferator-activated receptor gamma/Nuclear receptor coactivator 2 (Homo sapiens, UniProt P37231); experiment: TR-FRET dose response biochemical High Throughput Screening assay for agonists of the steroid receptor coactivator 2 (SRC-2) recruitment by the peroxisome proliferator-activated receptor gamma (PPAR gamma): non-selective agonists. [Related pubchem assays: 1297, 1032 ]; format: functional
# [6] = HPDE-C7 pancreatic duct cell viability loss – fluorescence, HTS (AID 430); format: functional, cell-based; settings: Homo sapiens
# [7] = viability loss of HPDE-C7K cells – cell-based, fluorescence, HTS, primary screen (AID 431); format: functional; settings: Homo sapiens
# Cytochrome P450 2D6 = Cytochrome P450 2D6 (Homo sapiens, UniProt P10635);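 further: CYP2D6 member of a cytochrome P450 panel assay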
# [8] = biological target: Glucose-6-phosphate 1-dehydrogenase (Homo sapiens, UniProt P11413); experiment: inhibition of Homo sapiens G6PD, dose series – biochemical, fluorescence, selectivity assay for P. falciparum G6PD inhibitor project, dose response (AID 504792); format: functional
# [9] = biological target: T2, Corticotropin-releasing factor receptor 2/Corticotropin-releasing factor-binding protein (Homo sapiens, UniProt P24387+Q13324); experiment: Dose Response confirmation of uHTS hits for small molecule antagonists of the CRF-binding protein and CRF-R2 receptor complex.; format: functional; settings: read-out: IC50_Mean
# T2 sequence (Q13324 whole entry): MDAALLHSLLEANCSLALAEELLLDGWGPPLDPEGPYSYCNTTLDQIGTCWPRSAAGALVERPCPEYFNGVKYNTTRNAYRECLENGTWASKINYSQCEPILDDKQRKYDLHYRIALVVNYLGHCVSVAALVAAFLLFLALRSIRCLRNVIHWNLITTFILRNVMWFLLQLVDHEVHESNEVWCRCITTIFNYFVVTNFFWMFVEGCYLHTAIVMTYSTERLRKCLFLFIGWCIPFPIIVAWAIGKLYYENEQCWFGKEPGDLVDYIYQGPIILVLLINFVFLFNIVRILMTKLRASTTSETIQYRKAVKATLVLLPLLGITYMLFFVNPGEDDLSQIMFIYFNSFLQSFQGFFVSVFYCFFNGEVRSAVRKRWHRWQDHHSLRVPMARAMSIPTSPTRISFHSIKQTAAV
# T2 sequence (P24387 whole entry): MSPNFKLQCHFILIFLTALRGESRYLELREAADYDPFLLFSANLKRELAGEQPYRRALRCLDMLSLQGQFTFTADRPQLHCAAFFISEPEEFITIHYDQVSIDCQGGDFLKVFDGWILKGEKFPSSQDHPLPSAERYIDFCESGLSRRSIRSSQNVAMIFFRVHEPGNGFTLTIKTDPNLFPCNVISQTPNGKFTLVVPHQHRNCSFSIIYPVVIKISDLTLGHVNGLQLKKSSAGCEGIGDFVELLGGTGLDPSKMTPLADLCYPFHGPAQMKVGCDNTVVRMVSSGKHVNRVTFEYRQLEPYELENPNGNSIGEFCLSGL
# [10] = biological target: T2, Corticotropin-releasing factor receptor 2/Corticotropin-releasing factor-binding protein; experiment: activators of CRF receptor 2 with binding protein – uHTS hits, confirmation (AID 602473); format: functional; settings: read-out: EC50_Mean
# Coagulation factor XII = biological target: T3, Coagulation factor XII (Homo sapiens, UniProt P00748); format: functional;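 further: activated factor XIIa alpha cleaving a fluorogenic AMC peptide substrate; inhibitor potency from loss of enzyme activity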
# T3 sequence (P00748 whole entry): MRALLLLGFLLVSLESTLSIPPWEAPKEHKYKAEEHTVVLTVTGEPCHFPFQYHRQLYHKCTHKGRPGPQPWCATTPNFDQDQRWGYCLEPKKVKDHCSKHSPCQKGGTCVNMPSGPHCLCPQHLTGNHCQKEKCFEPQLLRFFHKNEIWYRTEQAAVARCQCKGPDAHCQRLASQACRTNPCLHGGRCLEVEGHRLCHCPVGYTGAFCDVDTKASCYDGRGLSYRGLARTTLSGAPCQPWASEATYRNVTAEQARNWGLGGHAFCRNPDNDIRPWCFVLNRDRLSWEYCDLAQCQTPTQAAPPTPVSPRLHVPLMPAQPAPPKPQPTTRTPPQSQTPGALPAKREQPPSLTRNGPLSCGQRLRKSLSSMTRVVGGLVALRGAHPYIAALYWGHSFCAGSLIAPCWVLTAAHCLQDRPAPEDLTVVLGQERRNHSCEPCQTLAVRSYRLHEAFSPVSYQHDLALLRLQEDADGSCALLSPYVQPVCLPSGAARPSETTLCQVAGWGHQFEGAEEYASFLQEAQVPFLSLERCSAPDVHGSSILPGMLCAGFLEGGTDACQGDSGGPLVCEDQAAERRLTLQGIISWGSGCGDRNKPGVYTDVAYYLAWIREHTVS
# Protein Tat = biological target: T4, Protein Tat (Human immunodeficiency virus type 1 group M subtype B (isolate HXB2)(HIV-1), UniProt P04608); format: functional;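 further: tat binding to TAR RNA read out by fluorescence polarization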
# T4 sequence (P04608 whole entry): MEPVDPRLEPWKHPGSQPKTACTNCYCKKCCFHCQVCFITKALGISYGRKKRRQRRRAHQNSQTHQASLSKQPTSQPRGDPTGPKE
# [11] = HIV-1 Vif–A3G interaction blockers – biochemical, TR-FRET, GST-Vif 1-94, biotin-A3G peptide, dose response retest, primary screen (AID 1117319); format: functional;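 further: TR-FRET signal of purified GST-Vif binding a biotinylated A3G peptide; inhibitors lower the FRET signal by blocking Vif and A3G binding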
# Cytochrome P450 2C19 = Cytochrome P450 2C19 (Homo sapiens, UniProt P33261); experiment: Cytochrome panel assay with activity outcomes. Panel member name: p450-cyp2c19 Compounds with AC50 equal or less than 10 uM are considered active; format: functional; settings: read-out: AC50
# SUMO-activating enzyme = SUMO-activating enzyme (Homo sapiens, UniProt Q9UBT2); experiment: blockers of UBC9-mediated SUMO conjugation – biochemical, AlphaScreen, SUMOylation inhibitor project, confirmation (AID 2018); format: functional
# Genome polyprotein = Genome polyprotein (dengue virus type 2, UniProt P29990); experiment: flavivirus cap methylation enzyme inhibition – biochemical, confirmation dose response, primary screen (AID 588689); format: functional
# [12] = biological target: T5, Small ubiquitin-related modifier 1 (Homo sapiens, UniProt P63165); experiment: SUMO1 protein interaction blockers, potency – biochemical, fluorescence polarization, uHTS hits, dose response (AID 624382); format: functional; settings: read-out: IC50_Mean
# [13] = biological target: T5, Small ubiquitin-related modifier 1; experiment: SUMO1 protein-protein binding blockers, potency – biochemical, FRET, dose response (AID 624383); format: functional; settings: read-out: IC50_Mean
# [14] = Trypanosoma cruzi growth suppression in host cells – NIH3T3 host cells, beta-gal luminescence, confirmation (AID 2044); format: functional, cell-based;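 further: intracellular parasites grown in NIH/3T3 mouse fibroblasts as host cells; luminescent beta-galactosidase reporter signal from transgenic T. cruzi replicating inside host cells; inhibitors lower the luminescence signal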
# [15] = NIH3T3 cell viability loss – ATP luminescence, mouse fibroblasts, counter-screen, dose response (AID 2010); format: functional, cell-based;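 further: cells exposed to compound for about 90 hours before reading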
# [16] = THP-1 cell cytotoxicity, dose response, cytotoxicity control for non-replicating M. tuberculosis project (AID 489025); format: functional
# [17] = HepG2 cell cytotoxicity, dose response, cytotoxicity control for non-replicating M. tuberculosis project (AID 489018); format: functional; settings: Mycobacterium tuberculosis
# cells = format: functional
# Chain of Voltage-dependent T-type calcium channel subunit alpha-1H (O95180 whole entry): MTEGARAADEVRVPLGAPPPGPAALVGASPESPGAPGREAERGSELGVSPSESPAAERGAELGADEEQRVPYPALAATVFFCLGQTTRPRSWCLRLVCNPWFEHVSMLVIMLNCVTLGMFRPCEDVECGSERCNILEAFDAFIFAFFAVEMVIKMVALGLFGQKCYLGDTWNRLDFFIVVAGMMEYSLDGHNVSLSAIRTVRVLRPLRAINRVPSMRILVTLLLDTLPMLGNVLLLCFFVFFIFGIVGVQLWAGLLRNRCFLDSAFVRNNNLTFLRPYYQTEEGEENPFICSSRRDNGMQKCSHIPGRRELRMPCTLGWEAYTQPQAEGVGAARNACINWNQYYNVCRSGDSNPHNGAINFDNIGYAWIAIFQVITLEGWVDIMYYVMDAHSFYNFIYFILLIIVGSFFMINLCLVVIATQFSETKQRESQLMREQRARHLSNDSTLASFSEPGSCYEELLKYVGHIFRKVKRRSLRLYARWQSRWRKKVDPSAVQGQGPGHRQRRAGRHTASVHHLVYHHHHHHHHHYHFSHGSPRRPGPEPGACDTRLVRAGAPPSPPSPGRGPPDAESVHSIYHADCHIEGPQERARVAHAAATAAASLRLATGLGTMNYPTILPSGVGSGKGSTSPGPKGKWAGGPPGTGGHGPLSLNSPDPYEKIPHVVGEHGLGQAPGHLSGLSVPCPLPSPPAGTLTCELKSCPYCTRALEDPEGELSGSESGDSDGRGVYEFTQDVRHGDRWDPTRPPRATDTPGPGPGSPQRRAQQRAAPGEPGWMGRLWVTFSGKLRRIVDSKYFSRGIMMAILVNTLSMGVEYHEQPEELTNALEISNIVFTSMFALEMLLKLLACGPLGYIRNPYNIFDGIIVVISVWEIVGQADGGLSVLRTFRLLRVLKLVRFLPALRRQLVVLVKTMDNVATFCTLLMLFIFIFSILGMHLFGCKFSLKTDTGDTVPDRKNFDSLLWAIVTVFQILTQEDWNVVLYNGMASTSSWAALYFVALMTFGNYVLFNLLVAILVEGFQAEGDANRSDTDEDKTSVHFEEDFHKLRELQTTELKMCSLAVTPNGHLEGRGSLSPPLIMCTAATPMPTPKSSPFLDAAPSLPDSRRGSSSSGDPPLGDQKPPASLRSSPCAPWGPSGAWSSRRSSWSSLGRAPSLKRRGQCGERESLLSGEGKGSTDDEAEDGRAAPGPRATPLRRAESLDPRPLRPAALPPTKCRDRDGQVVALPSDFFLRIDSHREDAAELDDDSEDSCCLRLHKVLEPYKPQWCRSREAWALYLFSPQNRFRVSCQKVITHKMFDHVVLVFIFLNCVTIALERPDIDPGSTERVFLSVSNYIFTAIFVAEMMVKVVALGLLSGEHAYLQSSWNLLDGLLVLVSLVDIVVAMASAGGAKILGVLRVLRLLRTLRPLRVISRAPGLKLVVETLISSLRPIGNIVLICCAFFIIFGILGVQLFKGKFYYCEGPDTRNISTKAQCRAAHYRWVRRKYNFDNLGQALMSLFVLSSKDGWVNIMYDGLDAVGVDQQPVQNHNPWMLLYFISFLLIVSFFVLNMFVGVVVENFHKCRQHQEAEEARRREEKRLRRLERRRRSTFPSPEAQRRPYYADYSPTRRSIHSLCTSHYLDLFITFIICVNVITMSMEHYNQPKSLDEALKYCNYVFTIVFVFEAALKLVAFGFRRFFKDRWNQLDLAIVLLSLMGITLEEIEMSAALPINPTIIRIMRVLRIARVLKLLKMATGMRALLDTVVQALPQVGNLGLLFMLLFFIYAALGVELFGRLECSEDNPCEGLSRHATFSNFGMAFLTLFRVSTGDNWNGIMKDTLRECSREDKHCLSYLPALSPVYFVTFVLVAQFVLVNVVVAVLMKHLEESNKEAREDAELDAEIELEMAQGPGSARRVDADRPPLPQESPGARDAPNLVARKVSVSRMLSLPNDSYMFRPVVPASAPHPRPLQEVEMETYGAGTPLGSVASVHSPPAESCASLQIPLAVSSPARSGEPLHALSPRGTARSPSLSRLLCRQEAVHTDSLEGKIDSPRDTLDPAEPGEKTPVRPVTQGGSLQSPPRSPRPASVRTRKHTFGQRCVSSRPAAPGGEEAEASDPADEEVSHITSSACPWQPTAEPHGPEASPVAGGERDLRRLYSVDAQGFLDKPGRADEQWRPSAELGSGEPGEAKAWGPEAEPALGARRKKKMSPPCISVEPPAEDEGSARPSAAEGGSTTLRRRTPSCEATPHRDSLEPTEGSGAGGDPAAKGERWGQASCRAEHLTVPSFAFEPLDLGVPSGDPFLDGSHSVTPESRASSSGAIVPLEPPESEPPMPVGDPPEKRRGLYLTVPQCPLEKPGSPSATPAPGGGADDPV
# Chain of Peroxisome proliferator-activated receptor gamma/Nuclear receptor coactivator 2 (P37231 whole entry): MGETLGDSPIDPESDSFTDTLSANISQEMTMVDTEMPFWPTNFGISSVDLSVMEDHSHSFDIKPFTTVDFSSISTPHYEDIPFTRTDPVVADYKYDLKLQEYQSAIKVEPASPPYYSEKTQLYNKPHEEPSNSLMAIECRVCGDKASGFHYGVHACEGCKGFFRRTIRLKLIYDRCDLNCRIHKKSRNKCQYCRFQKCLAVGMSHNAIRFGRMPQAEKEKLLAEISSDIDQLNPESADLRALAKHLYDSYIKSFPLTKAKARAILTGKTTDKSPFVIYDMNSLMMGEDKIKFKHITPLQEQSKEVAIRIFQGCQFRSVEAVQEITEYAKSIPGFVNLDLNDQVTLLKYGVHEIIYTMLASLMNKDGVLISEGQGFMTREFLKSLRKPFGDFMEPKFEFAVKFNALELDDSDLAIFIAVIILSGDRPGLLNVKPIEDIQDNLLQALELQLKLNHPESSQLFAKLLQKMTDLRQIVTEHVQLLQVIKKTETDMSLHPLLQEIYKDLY
# Chain of Peroxisome proliferator-activated receptor gamma/Nuclear receptor coactivator 2 (Q15596 whole entry, further chain): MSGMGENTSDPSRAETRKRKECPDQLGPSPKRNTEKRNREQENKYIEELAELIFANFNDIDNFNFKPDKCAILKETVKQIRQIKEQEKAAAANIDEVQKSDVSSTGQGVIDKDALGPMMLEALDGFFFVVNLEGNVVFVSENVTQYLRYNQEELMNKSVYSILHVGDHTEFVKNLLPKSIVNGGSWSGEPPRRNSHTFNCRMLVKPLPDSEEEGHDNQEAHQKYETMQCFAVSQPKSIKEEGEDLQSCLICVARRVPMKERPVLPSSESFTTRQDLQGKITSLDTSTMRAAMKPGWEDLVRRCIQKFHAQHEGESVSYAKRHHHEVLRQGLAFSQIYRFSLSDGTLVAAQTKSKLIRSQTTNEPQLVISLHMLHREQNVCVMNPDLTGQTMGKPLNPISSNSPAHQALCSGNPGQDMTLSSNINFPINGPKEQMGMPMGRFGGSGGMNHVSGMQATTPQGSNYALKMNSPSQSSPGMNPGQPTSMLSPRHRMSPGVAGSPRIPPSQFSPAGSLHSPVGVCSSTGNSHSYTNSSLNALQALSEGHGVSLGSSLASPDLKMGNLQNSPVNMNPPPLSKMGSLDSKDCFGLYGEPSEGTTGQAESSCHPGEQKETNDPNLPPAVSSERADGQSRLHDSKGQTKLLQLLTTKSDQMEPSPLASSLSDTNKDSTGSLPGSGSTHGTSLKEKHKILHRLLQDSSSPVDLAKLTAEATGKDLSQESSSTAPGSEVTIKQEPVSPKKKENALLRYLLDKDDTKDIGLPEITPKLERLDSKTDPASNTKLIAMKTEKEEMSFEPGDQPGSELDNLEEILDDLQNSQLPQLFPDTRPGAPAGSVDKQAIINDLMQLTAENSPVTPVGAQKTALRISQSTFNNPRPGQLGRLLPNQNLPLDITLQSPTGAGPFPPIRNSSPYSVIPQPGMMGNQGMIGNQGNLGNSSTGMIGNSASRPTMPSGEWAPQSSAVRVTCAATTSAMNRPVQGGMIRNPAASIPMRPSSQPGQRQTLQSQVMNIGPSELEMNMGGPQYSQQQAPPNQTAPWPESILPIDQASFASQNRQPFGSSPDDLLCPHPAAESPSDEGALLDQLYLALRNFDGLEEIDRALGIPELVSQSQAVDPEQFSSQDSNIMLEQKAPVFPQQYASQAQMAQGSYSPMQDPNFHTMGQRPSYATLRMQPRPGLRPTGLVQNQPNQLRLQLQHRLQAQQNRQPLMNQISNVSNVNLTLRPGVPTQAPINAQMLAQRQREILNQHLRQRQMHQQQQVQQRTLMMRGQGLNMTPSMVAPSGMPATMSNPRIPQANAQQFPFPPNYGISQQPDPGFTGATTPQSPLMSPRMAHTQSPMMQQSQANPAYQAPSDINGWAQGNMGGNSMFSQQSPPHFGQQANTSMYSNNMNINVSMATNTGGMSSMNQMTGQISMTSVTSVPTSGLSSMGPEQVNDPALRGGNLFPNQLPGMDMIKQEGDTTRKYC
# T5 sequence (P63165 whole entry): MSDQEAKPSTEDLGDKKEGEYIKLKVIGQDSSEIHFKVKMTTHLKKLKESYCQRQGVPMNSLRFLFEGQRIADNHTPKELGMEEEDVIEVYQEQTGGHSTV
# Chain of Cytochrome P450 2C19 (P33261 whole entry): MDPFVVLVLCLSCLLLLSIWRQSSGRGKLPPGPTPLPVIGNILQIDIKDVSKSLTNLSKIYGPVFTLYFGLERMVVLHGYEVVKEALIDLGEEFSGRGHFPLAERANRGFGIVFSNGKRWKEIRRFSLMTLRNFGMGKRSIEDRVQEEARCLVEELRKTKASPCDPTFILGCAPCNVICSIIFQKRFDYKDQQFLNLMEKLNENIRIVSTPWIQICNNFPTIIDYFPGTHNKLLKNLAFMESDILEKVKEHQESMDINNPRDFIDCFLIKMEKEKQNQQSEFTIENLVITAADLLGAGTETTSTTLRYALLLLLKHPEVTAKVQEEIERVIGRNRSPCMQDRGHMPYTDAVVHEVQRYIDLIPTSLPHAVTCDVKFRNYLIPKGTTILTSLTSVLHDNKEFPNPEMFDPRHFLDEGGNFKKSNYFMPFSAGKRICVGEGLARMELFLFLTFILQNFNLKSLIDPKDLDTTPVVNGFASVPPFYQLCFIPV
structure (smiles),measurement,setting,value
COc1cc(/C=N/NC(=O)c2cccnc2)ccc1OCC(=O)Nc1ccc(C)cc1,IC50,Aminopeptidase N,47.8 µM (active)
Cc1cc2nc(C3CCN(CC4COc5ccccc5O4)CC3)[nH]c2cc1C (configuration not stated),CC50,[1],30.9 µM (active)
same,EC50,[2],4.9 µM (active)
CCn1c(=O)cc(SCC(=O)NCc2ccco2)c2ccccc21,EC50,[3],> 79.4 µM (inactive)
same,EC50,[4],> 79.4 µM (not active)
same,EC50,[5],> 79.4 µM (not active)
Cc1nc2c(C(=O)NCc3ccc4c(c3)OCO4)cnn2c(O)c1Cc1ccccc1F,EC50,[6],9.68 µM (active)
same,EC50,[7],11.6 µM (active)
same,EC50,[2],7.38 µM (active)
same,AC50,Cytochrome P450 2D6,25.1 µM (inconclusive)
CCNS(=O)(=O)c1ccc(CCC(=O)NCc2ccc(C)cc2)cc1,IC50,Aminopeptidase N,21.8 µM (active)
COc1c2ccoc2c(OCC=C(C)C)c2oc(=O)ccc12 [PHELLOPTERIN],IC50,[8],> 80 µM (inactive)
CC(C)(C)n1nnnc1C(c1ccc(Cl)cc1)N(Cc1cccnc1)Cc1ccco1 (configuration not stated),EC50,[2],3.31 µM (active)
same,IC50,[9],> 47.1 µM (inactive)
same,EC50,[10],> 53 µM (inactive)
NCCNC(=O)Cc1cccc(NC(=O)Cc2ccc(Nc3ncnc4c3ncn4[C@@H]3O[C@H](CO)[C@@H](O)[C@H]3O)cc2)c1,IC50,Aminopeptidase N,53.7 µM (active)
Cc1cccc(OCC(=O)Nc2nnc(-c3ccco3)s2)c1,EC50,[3],> 26.5 µM (inactive)
same,EC50,[4],> 79.4 µM (not active)
same,EC50,[5],> 26.5 µM (not active)
c1cncc(-c2csc(NCc3ccco3)n2)c1,IC50,Coagulation factor XII,> 50 µM (inactive)
same,IC50,Protein Tat,> 100 µM (active)
same,IC50,[11],> 100 µM (active)
Cc1cccc(NC(=O)c2cc(N3C(=O)CCC3=O)ccc2Cl)n1,IC50,Coagulation factor XII,> 50 µM (inactive)
same,AC50,Cytochrome P450 2C19,28.2 µM (inconclusive)
O=C(Nc1ccccc1O)c1cc(S(=O)(=O)N2CCOCC2)c(Cl)cc1Cl,IC50,SUMO-activating enzyme,> 100 µM (inactive)
O=C(CSc1ncnc2c1oc1ccccc12)Nc1cccc(Cl)c1,EC50,[3],37.1 µM (inactive)
same,EC50,[4],> 79.4 µM (not active)
same,EC50,[5],23.7 µM (not active)
COc1cc(OC)cc(C(=O)N2CCN(Cc3ccccc3C(F)(F)F)CC2)c1,IC50,Coagulation factor XII,> 50 µM (inactive)
O=C(O)Cn1cc(C=C2C(=O)NC(=O)NC2=O)c2ccccc21,IC50,Genome polyprotein,> 100 µM (active)
COc1ccc(-c2nnc(Nc3ccc(S(=O)(=O)Nc4nccs4)cc3)c3ccccc23)cc1,EC50,[3],14.9 µM (inactive)
same,EC50,[4],> 79.4 µM (not active)
same,EC50,[5],9.18 µM (active)
same,IC50,[9],> 47.1 µM (inactive)
same,EC50,[10],> 53 µM (inactive)
same,IC50,[12],> 66.6 µM (inactive)
same,IC50,[13],18.2 µM (active)
COC(=O)c1sc(NC(=O)c2ccc([N+](=O)[O-])o2)c(C#N)c1C,EC50,[14],0.255 µM (active)
same,EC50,[15],> 60 µM (not active)
same,CC50,[16],18.8 µM (active)
same,CC50,[17],> 20 µM (active)
same,IC50,cells,6.19 µM (active)
